The values that follow come from CN104650070A, “二氢嘧啶类化合物及其在药物中的应用” (Guangdong HEC Pharmaceutical Co Ltd, priority 2013, dated 2015).

Assay [1] has as its system HBV. Particulars: cited from Science, 299 (2003), 893-896; cited from earlier work.
The test system of assay [2] is HBV in HepG2.2.15 cells (HBV HepG2.2.15细胞株). Description: In vitro anti-HBV activity in HBV HepG2.2.15 cell line (qPCR of HBV DNA in culture supernatant). Type of assay: cell-based. Conditions: Hepatitis B virus, 192 h, HBV DNA in culture supernatant by qPCR, collected on day 8, top concentration 16.4 μM, 3-fold dilution, 9 points, duplicate wells. For orientation: Real-time PCR tracks product formation cycle by cycle.

On to `Nc1ccn([C@@H]2CS[C@H](CO)O2)c(=O)n1` [拉米夫定], for which the IC50 in assay [1] is 0.3 µM.

In assay [2], `CCOC(=O)C1=C(CN2CCOC[C@H]2C(=O)NC2CC2)NC(c2nccs2)=N[C@H]1c1ccc(F)cc1Br` [实施例4, (R)-4-(2-溴-4-氟苯基)-6-(((S)-3-(环丙氨甲酰基)吗啉代)甲基)-2-(噻唑-2-基)-1,4-二氢嘧啶-5-甲酸乙酯] registered an EC50 of 0.7 µM. On the same count and under the same terms, the value for `CCOC(=O)C1=C(CN2CCOC(CCC(=O)Nc3ccccc3)C2)NC(c2nccs2)=NC1c1ccc(Cl)cc1Cl` (centres unmarked) [实施例16, 4-(2,4-二氯苯基)-6-((-2-(3-氧代-3-(苯胺)丙基)吗啉代)甲基)-2-(噻唑-2-基)-1,4-二氢嘧啶-5-甲酸乙酯] was 0.49 µM. On the same count and under the same terms, the value for `CCOC(=O)C1=C(CN2CCOC(CCC(=O)NCc3ccccc3)C2)NC(c2nccs2)=NC1c1ccc(F)cc1Br` (centres unmarked) [实施例3, 6-((2-(3-(苄胺)-3-氧代丙基)吗啉)甲基)-4-(2-溴-4-氟苯基)-2-(噻唑-2-基)-1,4-二氢嘧啶-5-甲酸乙酯] was 0.13 µM. `CCOC(=O)C1=C(CN2CCOC[C@H]2C(=O)Nc2ccccc2)NC(c2nccs2)=N[C@H]1c1ccc(Cl)cc1Cl` [实施例12, (R)-4-(2,4-二氯苯基)-6-(((S)-3-(苯基氨甲酰基)吗啉代)甲基)-2-(噻唑-2-基)-1,4-二氢嘧啶-5-甲酸乙酯]: the EC50 in assay [2] turned out to be 0.72 µM. `COC(=O)C1=C(CN2CCOC(CCC(=O)NS(=O)(=O)c3ccccc3)C2)NC(c2nccs2)=NC1c1ccc(F)cc1Br` (centres unmarked) [实施例17, 4-(2-溴-4-氟苯基)-6-((-2-(3-氧代-3-(苯磺酰胺)丙基)吗啉代)甲基)-2-(噻唑-2-基)-1,4-二氢嘧啶-5-甲酸甲酯]: the EC50 in assay [2] stood at 0.65 µM. The same measure, in the same setting: the value for `CCOC(=O)C1=C(CN2CCOC[C@H]2C(=O)Nc2nccs2)NC(c2nccs2)=N[C@H]1c1ccc(F)cc1Br` [实施例13, (R)-4-(2-溴-4-氟苯基)-2-(噻唑-2-基)-6-(((S)-3-(噻唑-2-基氨甲酰)吗啉代)甲基)-1,4-二氢嘧啶-5-甲酸乙酯] was 1.4 µM. In turn, `CCOC(=O)C1=C(CN2CCOC[C@H]2C(=O)NCc2ccccc2)NC(c2nccs2)=N[C@H]1c1ccc(F)cc1Br` [实施例7, (R)-6-(((S)-3-(苄基氨甲酰基)吗啉代)甲基)-4-(2-溴-4-氟苯基)-2-(噻唑-2-基)-1,4-二氢嘧啶-5-甲酸乙酯] had an EC50 in assay [2] of 0.67 µM. The same measure, in the same setting: the value for `CCOC(=O)C1=C(CN2CCOC(CCC(=O)Nc3ccccc3)C2)NC(c2nccs2)=NC1c1ccc(F)cc1Cl` (centres unmarked) [实施例15, 4-(2-氯-4-氟苯基)-6-((-2-(3-氧代-3-(苯胺)丙基)吗啉代)甲基)-2-(噻唑-2-基)-1,4-二氢嘧啶-5-甲酸乙酯] was 0.67 µM. Still for that read-out and setting: the value for `CCOC(=O)C1=C(CN2CCOC[C@H]2C(=O)NCc2ccccc2)NC(c2nccs2)=N[C@H]1c1ccc(F)cc1Cl` [实施例8, (R)-6-(((S)-3-(苄基氨甲酰基)吗啉代)甲基)-4-(2-氯-4-氟苯基)-2-(噻唑-2-基)-1,4-二氢嘧啶-5-甲酸乙酯] was 0.89 µM.

In turn, `CCOC(=O)C1=C(CN2CCOC[C@H]2C(=O)NCc2ccccc2)NC(c2nccs2)=N[C@H]1c1ccc(Cl)cc1Cl` [实施例9, (R)-6-(((S)-3-(苄基氨甲酰)吗啉代)甲基)-4-(2,4-二氯苯基)-2-(噻唑-2-基)-1,4-二氢嘧啶-5-甲酸乙酯] had a concentration giving a half-maximal response (EC50) in assay [2] of 0.54 µM. Same read-out and setting: with `CCOC(=O)C1=C(CN2CCOC[C@H]2C(=O)NC2CC2)NC(c2nccs2)=N[C@H]1c1ccc(Cl)cc1Cl` [实施例6, (R)-6-(((S)-3-(环丙氨甲酰基)吗啉代)甲基)-4-(2,4-二氯苯基)-2-(噻唑-2-基)-1,4-二氢嘧啶-5-甲酸乙酯] the figure was 0.65 µM; with `CCOC(=O)C1=C(CN2CCOC[C@H]2C(=O)Nc2ccccc2)NC(c2nccs2)=N[C@H]1c1ccc(F)cc1Cl` [实施例11, (R)-4-(2-氯-4-氟苯基)-6-(((S)-3-(苯基氨甲酰基)吗啉代)甲基)-2-(噻唑-2-基)-1,4-二氢嘧啶-5-甲酸乙酯], 0.92 µM; with `COC(=O)C1=C(CN2CCOC(CCC(=O)NS(=O)(=O)c3ccccc3)C2)NC(c2nccs2)=NC1c1ccc(Cl)cc1Cl` (centres unmarked) [实施例19, 4-(2,4-二氯苯基)-6-((2-(3-氧代-3-(苯磺酰胺)丙基)吗啉代)甲基)-2-(噻唑-2-基)-1,4-二氢嘧啶-5-甲酸甲酯], 0.56 µM. Still for that read-out and setting: with `CCOC(=O)C1=C(CN2CCOC(CCC(=O)Nc3ccccc3)C2)NC(c2nccs2)=NC1c1ccc(F)cc1Br` (centres unmarked) [实施例14, 4-(2-溴-4-氟苯基)-6-((-2-(3-氧代-3-(苯胺)丙基)吗啉代)甲基)-2-(噻唑-2-基)-1,4-二氢嘧啶-5-甲酸乙酯] the figure was 0.54 µM.

In assay [2], `CCOC(=O)C1=C(CN2CCOC[C@H]2C(=O)NC2CC2)NC(c2nccs2)=N[C@H]1c1ccc(F)cc1Cl` [实施例5, (R)-4-(2-氯-4-氟苯基)-6-(((S)-3-(环丙氨甲酰基)吗啉代)甲基)-2-(噻唑-2-基)-1,4-二氢嘧啶-5-甲酸乙酯] registered an EC50 of 0.8 µM.

The compound `CCOC(=O)C1=C(CN2CCOC[C@H]2C(=O)NS(C)(=O)=O)NC(c2nccs2)=NC1c1ccc(F)cc1Br` (stereo partly drawn) [实施例1, 4-(2-溴-4-氟苯基)-6-(((S)-3-((甲磺酰基)氨甲酰基)吗啉代)甲基)-2-(噻唑-2-基)-1,4-二氢嘧啶-5-甲酸乙酯] had an EC50 in assay [2] of 1 µM. Still for that read-out and setting: with `CCOC(=O)C1=C(CN2CCOC[C@H]2C(=O)NS(=O)(=O)C2CC2)NC(c2nccs2)=NC1c1ccc(F)cc1Br` (stereo partly drawn) [实施例2, 4-(2-溴-4-氟苯基)-6-(((S)-3-((环丙磺酰基)氨甲酰基)吗啉)甲基)-2-(噻唑-2-基)-1,4-二氢嘧啶-5-甲酸乙酯] the figure was 2.3 µM; with `CCOC(=O)C1=C(CN2CCOC[C@H]2C(=O)Nc2ccccc2)NC(c2nccs2)=N[C@H]1c1ccc(F)cc1Br` [实施例10, (R)-4-(2-溴-4-氟苯基)-6-(((S)-3-(苯基氨甲酰基)吗啉代)甲基)-2-(噻唑-2-基)-1,4-二氢嘧啶-5-甲酸乙酯], 0.8 µM; with `COC(=O)C1=C(CN2CCOC(CCC(=O)NS(=O)(=O)c3ccccc3)C2)NC(c2nccs2)=NC1c1ccc(F)cc1Cl` (centres unmarked) [实施例18, 4-(2-氯-4-氟苯基)-6-((2-(3-氧代-3-(苯磺酰胺)丙基)吗啉代)甲基)-2-(噻唑-2-基)-1,4-二氢嘧啶-5-甲酸甲酯], 0.74 µM.

In general, IC50 refers to the concentration that inhibits the measured activity by half. As a reminder, the EC50 is the concentration needed to bring the measured effect to its halfway point.
